Measurements published in EP4596574A1, “GLP-1/GCG/GIP TRIPLE-RECEPTOR AGONIST AND USE THEREOF” (Sunshine Lake Pharma Co., Ltd., priority 2022, dated 2024).
Marks after values point to notes of the source that are not given here.

Assays:
[1] = Glucose tolerance assessment in normal C57BL/6 mice (Example 4); type: in vivo; conditions: 3 nmol/kg s.c. single dose, 24 h after administration
Outline: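 Twelve hours after a single administration, mice were fasted 12 h and then given 2 g/kg glucose i.p. Tail-vein blood glucose was measured at baseline and at 15, 30, 60 and 90 min. AUC0–90min was calculated per dose group at 24 h post-dose.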

[2] = Pharmacokinetic study in rats, single subcutaneous injection; conditions: male, Sprague Dawley, in vivo, sc, rat, 50 nmol/kg single subcutaneous injection, plasma
Procedure: The pharmacokinetic study of each polypeptide compound prepared in Example 1 was conducted using male Sprague Dawley rats. There were 3 male rats in each group. […] The dose was 50 nmol/kg, and a single subcutaneous injection was given (see Table 3 for specific peptide compounds). After administration, plasma was collected on the specified days and time points, and the concentration of each peptide compound in the plasma was detected by LC-MS/MS method. The pharmacokinetic parameters were obtained based on the concentration data, which were used to describe the pharmacokinetic properties of the peptide in rats after subcutaneous injection. Table 3: Summary of pharmacokinetic parameters of some triple-target peptides in rats

[3] = Glucose tolerance assessment in normal C57BL/6 mice (Example 5); type: in vivo; conditions: 3 nmol/kg s.c. single dose, 24 h after administration
Outline: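 Normal C57BL/6 mice given a single dose, fasted 12 h starting 12 h post-dose, then challenged with 2 g/kg glucose i.p. Tail-vein glucose measured at baseline and 15, 30, 60, 90 min. AUC0~90min calculated from the glucose–time curve per dose group.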

[4] = 15 min after 2 g/kg glucose i.p.
[5] = 30 min after 2 g/kg glucose i.p.
[6] = 60 min after 2 g/kg glucose i.p.
[7] = 90 min after 2 g/kg glucose i.p.
[8] = basal before 2 g/kg glucose i.p.
[9] = blood glucose AUC, 2 g/kg glucose i.p.

Row | Compound | Blood glucose level (mM) 15 min [1, 4] [mM] | Blood glucose level (mM) 30 min [1, 5] [mM] | Blood glucose level (mM) 60 min [1, 6] [mM] | Blood glucose level (mM) 90 min [1, 7] [mM] | Blood glucose level (mM) 0 min [1, 8] [mM] | AUC0-90 min [1, 9] | AUC(0-inf) [2] [ng·h/mL] | AUC(0-t) [2] [ng·h/mL] | Cmax [2] [ng/mL] | half-life ([2]; read-out: T1/2 (converted)) [h] | Tmax ([2]; read-out: Tmax) [h] | Blood glucose level (mM) 15 min [3, 4] [mM] | Blood glucose level (mM) 30 min [3, 5] [mM] | Blood glucose level (mM) 60 min [3, 6] [mM] | Blood glucose level (mM) 90 min [3, 7] [mM] | Blood glucose level (mM) 0 min [3, 8] [mM] | AUC0-90 min [3, 9]
1 | CC[C@H](C)[C@H](NC(=O)[C@H](Cc1ccccc1)NC(=O)[C@H](CCC(=O)O)NC(=O)[C@H](CCCNC(=N)N)NC(=O)[C@H](CCC(N)=O)NC(=O)[C@H](CCCNC(=N)N)NC(=O)[C@H](CCCCNC(=O)COCCOCCNC(=O)CC[C@H](NC(=O)CCCCCCCCCCCCCCCCC(=O)O)C(=O)O)NC(=O)[C@H](CCC(=O)O)NC(=O)[C@H](CC(=O)O)NC(=O)[C@H](CC(C)C)NC(=O)[C@H](CC(C)C)NC(=O)[C@@H](NC(=O)[C@H](CO)NC(=O)[C@H](Cc1ccc(O)cc1)NC(=O)[C@H](CC(=O)O)NC(=O)[C@H](CO)NC(=O)[C@@H](NC(=O)[C@](C)(Cc1ccccc1F)NC(=O)[C@@H](NC(=O)CNC(=O)[C@H](Cc1c[nH]cn1)NC(=O)C(C)(C)NC(=O)[C@@H](N)Cc1ccc(O)cc1)[C@@H](C)O)[C@@H](C)O)[C@@H](C)CC)C(=O)N[C@@H](CCC(=O)O)C(=O)N[C@@H](Cc1c[nH]c2ccccc12)C(=O)N[C@@H](CC(C)C)C(=O)N[C@@H](CC(C)C)C(=O)N[C@@H](C)C(=O)NCC(=O)NCC(=O)N1CCC[C@H]1C(=O)N[C@@H](CO)C(=O)N[C@@H](CO)C(=O)NCC(=O)N[C@@H](C)C(=O)N1CCC[C@H]1C(=O)N1CCC[C@H]1C(=O)N1CCC[C@H]1C(=O)N[C@@H](CO)C(=O)O [HEC-PT77] | 12.6 ± 3.3 | 9.6 ± 3.4 | 8.5 ± 2.7 | 6.9 ± 1.9 | 4.0 ± 0.5 | 776.9±227.6^a | 22200 ± 3840 | 22000 ± 3870 | 596 ± 213 | 11 ± 1.6 | 15 ± 11 |  |  |  |  |  | 
2 | CC[C@H](C)[C@H](NC(=O)[C@H](Cc1ccccc1)NC(=O)[C@H](C)NC(=O)[C@H](CCCNC(=N)N)NC(=O)[C@H](CCC(N)=O)NC(=O)[C@H](CCCNC(=N)N)NC(=O)[C@H](CCCCNC(=O)COCCOCCNC(=O)CC[C@H](NC(=O)CCCCCCCCCCCCCCCCCCC(=O)O)C(=O)O)NC(=O)[C@H](CCC(=O)O)NC(=O)[C@H](CC(=O)O)NC(=O)[C@H](CC(C)C)NC(=O)[C@H](CC(C)C)NC(=O)[C@@H](NC(=O)[C@H](CO)NC(=O)[C@H](Cc1ccc(O)cc1)NC(=O)[C@H](CC(=O)O)NC(=O)[C@H](CO)NC(=O)[C@@H](NC(=O)[C@](C)(Cc1ccccc1F)NC(=O)[C@@H](NC(=O)CNC(=O)[C@H](CCC(N)=O)NC(=O)C(C)(C)NC(=O)[C@@H](N)Cc1ccc(O)cc1)[C@@H](C)O)[C@@H](C)O)[C@@H](C)CC)C(=O)N[C@@H](CCC(=O)O)C(=O)N[C@@H](Cc1ccc(O)cc1)C(=O)N[C@@H](CC(C)C)C(=O)N[C@@H](CC(C)C)C(=O)N[C@@H](C)C(=O)NCC(=O)NCC(=O)N1CCC[C@H]1C(=O)N[C@@H](CO)C(=O)N[C@@H](CO)C(=O)NCC(=O)N[C@@H](C)C(=O)N1CCC[C@H]1C(=O)N1CCC[C@H]1C(=O)N1CCC[C@H]1C(=O)N[C@@H](CO)C(=O)O [HEC-PT86] |  |  |  |  |  |  |  |  |  |  |  | 13.2 ± 1.4 | 10.3 ± 1.9 | 8.8 ± 1.0 | 7.0 ± 0.8 | 3.9 ± 0.2 | 827.3±70.3^a
